According to US7423020B2, “Treatment of mood disorders by administration of SMR1” (Institut Pasteur, priority 2001, dated 2008):

Key:
[1] = test system: male Wistar/AF EOPS rats; test: Behavioral despair test (forced swimming); type: in vivo, rat
Experimental: Forty male Wistar/AF EOPS rats (Iffa-Credo Breeding Centre, 69-St-Germain sur l'Arbresle, France), weighing 300 to 320 g, were used. On arrival, the rats were labelled and distributed randomly in pairs into type F polycarbonate cages (48×27×20 cm, U.A.R., 91-Epinay-Sur-Orge, France). The animals were stabled in an air-conditioned animal house, at a temperature of 22-24° C. The rats were given food (M25 croquettes, Ets Pietrement, 77-Provins, France) and drink ad libitum and were subjected to a 12-hour light-darkness cycle.
After one week of familiarization with the laboratory conditions, the rats were weighed and distributed randomly into 3 treatment groups (n=12). The rats of the different groups will all be handled in the same way and under the same conditions.
The behavioral despair test takes place over two sessions: • a 15-minute test session; • a 5-minute retest session, performed 24 hours later.
During the test session, the rat was subjected to forced swimming in a Plexiglas cylinder (20 cm in diameter and 50 cm in height, containing 25 cm of water at 25° C.) and its behavior was recorded over 15 minutes. At the end of the test, the rat was removed from the water, dried gently, treated and then returned to its dwelling cage.
During the retest, 24 hours later, the rat was again placed in the water and its behavior was recorded over 5 minutes.
The recorded variables are the period of immobility during the first 5 minutes of both the test and the retest.
The peptide FG-005 (SMR1-QHNPR) (SEQ ID NO: 1) was suspended at a rate of 500 μg per 5 ml of 0.01N acetic acid, and then diluted with PBS to be administered at doses of 50 and 100 μg/kg via the i.v. route into the dorsal caudal vein of the rat, immediately after the test and 300 and 5 minutes before the retest the following day.
A bilateral probability paired t test was used to compare the two periods of immobility of the test with those of the retest in each of the groups. The results are expressed as an average ±standard error of mean (SEM)(FIG. 4). The statistical and graphical processing was performed using Statview5 and DeltaGraph® Pro 3.5 software.

[2] = test system: male Wistar/AF EOPS rats; test: Behavioral despair test (forced swimming); type: in vivo, rat; settings: first 5 minutes, n = 10
[3] = molecular target: T1, NEP (Rattus norvegicus, UniProt P07861); test: Met-enkephalin hydrolysis by rat spinal cord slices and membrane preparations, RP-HPLC analysis; type: biochemical; settings: for inhibition of enkephalinase activity over the time of incubation: 37° C., from 10 to 30 min, 10 μM Phosphoramidon, 1 μM Thiorphan
T1 construct: incubations of membrane and fresh tissue slice preparations from nervous tissues; from tissue; host or cells: rat spinal cord (dorsal zone), fresh slices or 100 000 x g membrane fraction
T1 sequence (P07861 1-750): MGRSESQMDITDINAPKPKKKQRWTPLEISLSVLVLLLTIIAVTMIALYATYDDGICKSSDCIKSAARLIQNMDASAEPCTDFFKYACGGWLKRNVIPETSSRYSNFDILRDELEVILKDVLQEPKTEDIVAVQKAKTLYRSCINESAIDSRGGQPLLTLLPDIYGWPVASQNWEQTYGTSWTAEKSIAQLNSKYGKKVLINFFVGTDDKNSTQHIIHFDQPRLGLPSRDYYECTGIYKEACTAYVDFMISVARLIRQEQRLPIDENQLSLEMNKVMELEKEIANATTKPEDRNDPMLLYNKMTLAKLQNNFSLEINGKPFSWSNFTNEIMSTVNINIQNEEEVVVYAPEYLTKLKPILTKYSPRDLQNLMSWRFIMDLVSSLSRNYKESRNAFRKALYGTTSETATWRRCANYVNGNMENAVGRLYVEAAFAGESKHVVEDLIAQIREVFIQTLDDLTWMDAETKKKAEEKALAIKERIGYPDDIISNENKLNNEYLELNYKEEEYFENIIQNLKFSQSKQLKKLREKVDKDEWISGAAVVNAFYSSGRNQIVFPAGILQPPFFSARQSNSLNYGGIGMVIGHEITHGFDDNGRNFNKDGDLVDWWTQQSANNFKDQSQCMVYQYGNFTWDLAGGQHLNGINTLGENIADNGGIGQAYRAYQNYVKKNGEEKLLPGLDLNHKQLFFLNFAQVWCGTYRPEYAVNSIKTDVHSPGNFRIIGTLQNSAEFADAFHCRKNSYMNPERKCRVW
Experimental: The organs are rapidly removed, dissected on ice, freed of nerve fibers and of adipose tissues and then washed in cold oxygenated glucose-and bicarbonate-containing Krebs Ringer (KRBG) solution, whose composition is the following: 120 mM NaCl-5 mM KCl-1.2 mM KH2PO4-27.5 mM NaHCO3-2.6 mM CaCl2-0.67 mM MgSO4-5.9 mM glucose. The slices of tissues are prepared either manually with the aid of a scalpel (1-2 mm thick), or mechanically with the aid of a “Tissue Chopper” (1 mm thick). Slices are then dispersed into reaction tubes where they are subjected to three successive washes in ice-cold oxygenated KRBG. […] The organs dissected out and washed in ice-cold KRBG are homogenized at 4° C. in 10 volumes (vol./wt.) of 50 mM Tris/HCl buffered at pH 7.2, using a Teflon-glass homogenizer (3×5 sec.). A first centrifugation of 5 min. at 1000×g and 4° C. makes it possible to remove the tissular debris and the nuclei in the pellet. A second centrifugation of the supernatant at 100 000×g and 5° C. concentrates the membrane fraction into the pellet, which will be superficially washed three times with cold Tris/HCl buffer and resuspended in fresh buffer using a Kontes homogenizer, aliquoted and stored at -80° C. while waiting to be used as enzyme source, at least until three months. For the experiments of analysis of the NEP peptidase activity, an ex vivo model using incubations of membrane and fresh tissue slice preparations from nervous tissues that are known to be appropriate for exploring NEP peptidase activity: i.e. the dorsal zone of rat spinal cord, was first developed. The metabolism rate of the NEP-sensitive peptides was measured using the both NEP substrates involved in the signaling of the nociceptive response: the neuropeptides Met-enkephalin and Substance P. […] (NEN, 12.5-25 nM) were used. The objective was to measure the NEP-specific endoproteolysis of these substrates. […] Furthermore, for studying the functional role of […] NO: 1), the reaction was carried out in the presence of the SMR1-peptide alone or combined with specific inhibitors of membrane peptidases which could inactivate the […] NO: 1) peptide by cleaving its C-terminal end: an inhibitor of carboxypeptidase […], 10 μM, Sigma) and an inhibitor of dipeptidylpeptidase IV (DPPIV inhibitor, 10 μM, Roche). […] Samples are kept at -30° C. until the measurement of their intact substrate and its metabolites content. The membrane preparations are preincubated in 50 mM Tris/HCl buffered at pH 7.2 and containing 10 μM Bestatin, at 25, 30 or 37° C. in constantly shaken water, in the presence or in the absence of NEP inhibitor. […] Samples are kept at -30° C. until the measurement of their intact substrate and its metabolites content. HPLC is a highly resolutive procedure that allows one to isolate, and detect by coupled spectrophotometer analysis, the non-radioactive peptides whose concentration is at least 1 to 10 μM. The C-18 RP-HPLC is based on the same principle as the C-18 Sep-Pak cartridge. The chromatographic analyses were used to study the hydrolysis of Met-Enkephalin, that were done on a C-18 LUNA analytical column (150×4.6 mm inner diameter, AIT) packed with 5 μm-diameter beads. […] Their identification and relative quantification (peak height) are checked by continuously monitoring the UV absorbance at 254 nm of column outflow. In first series of experiment, the slices and the membrane preparations of spinal cord tissues were incubated at 30° C. in a 1 ml final volume of KRBG, and at 37° C. in a 0.25 ml final volume of Tris/HCl 50 mM, pH 7.2, respectively.

[4] = molecular target: T1, NEP; test: Met-enkephalin degradation by rat spinal cord slices, RIA assay; type: biochemical; settings: 10 μM; fresh spinal cord slices; 20 min at 25° C.; 10 μM Met-enkephalin
Experimental: (§1) For the experiments of analysis of the NEP peptidase activity, an ex vivo model using incubations of membrane and fresh tissue slice preparations from nervous tissues that are known to be appropriate for exploring NEP peptidase activity: i.e. the dorsal zone of rat spinal cord, was first developed. […] (NEN, 12.5-25 nM) were used.
(§2) The objective was to measure the NEP-specific endoproteolysis of these substrates.

[5] = molecular target: T1, NEP; test: 3H-Substance P hydrolysis by rat spinal cord slices; type: biochemical; settings: 25° C., over 30 min incubation, read-out: inhibition of Substance P degradation
Experimental: as §1, §2
The C-18 Sep-Pak cartridges (Waters) were used to analyze the hydrolysis of the radiolabeled peptides: they separate compounds according to their differences in polarity. This solid-phase extraction procedure allows isolating the substrate from its metabolites, since the hydrophobic character of the peptide metabolites is reduced or even lost compared to the intact peptide substrate.
The radioactivity of eluted and isolated compounds is determined by liquid scintillation spectrometry.

inhibition at 10 µM ([3]; 10 μM, membrane preparations and fresh tissue slices, 10 min incubation at 37° C., read-out: inhibition of Met-enkephalin hydrolysis (enkephalinase activity)) [%] | inhibition of Met-enkephalin degradation (RP-HPLC) ([3]; 10 μM, spinal cord slices, 20 min at 25° C., Met-enkephalin 10 μM) | inhibition of enkephalinase activity over the time of incubation [3] | protection of Met-enkephalin from degradation (RIA) [4] [%] | inhibition at 10 µM [5] [%] | inhibition at 1 µM ([3]; 1 μM, membrane preparations and fresh tissue slices, 10 min incubation at 37° C., read-out: inhibition of Met-enkephalin hydrolysis (enkephalinase activity)) [%] | inhibition at 10 µM ([3]; 10 μM, spinal cord slices, 20 min at 25° C., Met-enkephalin 10 μM, read-out: inhibition of Met-enkephalin degradation (RP-HPLC)) [%] | Compound | change of period of immobility, retest compared with test ([1]; 8-OH-DPAT treated rats) | overall effect in the behavioral despair test ([1]; FG-005 50 and 100 μg/kg i.v., 8-OH-DPAT as reference substance) | Immobility period, Retest ([2]; 0.5 mg/kg i.p., 1440, 300, 30 min before the retest) | Immobility period, Test ([2]; 8-OH-DPAT group, 0.5 mg/kg i.p., test session before any treatment)
– | – | – | – | – | – | – | CCCN(CCC)C1CCc2cccc(O)c2C1 (centres unmarked) [8-OH-DPAT, reference compound] | significantly reduce their period of immobility | significant anti-resignation effect | 31.60 ± 11.51 | 109.20 ± 11.43
80 to 90 | complete inhibition | almost complete inhibition | 96 | 60 to 65 | – | – | CC(C)C[C@H](NP(=O)(O)O[C@@H]1O[C@@H](C)[C@H](O)[C@@H](O)[C@H]1O)C(=O)N[C@@H](Cc1c[nH]c2ccccc12)C(=O)O [Phosphoramidon] | – | – | – | –
– | – | almost complete inhibition | 100 | 60 to 65 | 80 to 90 | 80 | O=C(O)CNC(=O)C(CS)Cc1ccccc1 (centres unmarked) [Thiorphan] | – | – | – | –
